Here are results for 19 compounds from patent US5403850A, “Derivatives of P-substituted phenyl ester of pivalic acid” (Ono Pharmaceutical Co., Ltd., priority 1988, dated 1995).

Counter-ions that a name gives are not always drawn.

By IC50 is commonly meant the concentration needed to halve the response being measured. Low values mean greater potency, high ones weaker potency.

The target in this assay is T1, elastase from human neutrophil (Homo sapiens, UniProt P08246).
T1 construct: elastase from human neutrophil; from tissue; host or cells: human neutrophil
T1 sequence (P08246 30-247 limits assumed): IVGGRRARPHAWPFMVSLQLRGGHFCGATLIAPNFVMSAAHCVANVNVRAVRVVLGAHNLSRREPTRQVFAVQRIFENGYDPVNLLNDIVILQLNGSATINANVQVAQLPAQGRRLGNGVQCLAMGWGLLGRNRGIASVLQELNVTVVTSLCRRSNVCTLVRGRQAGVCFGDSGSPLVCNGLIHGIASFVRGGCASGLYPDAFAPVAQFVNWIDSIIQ
Briefly: Inhibitory effect on elastase (spectrophotometric, Suc-Ala-Pro-Ala-pNA substrate). It is filed as biochemical. Particulars: 1 mM Suc-Ala-Pro-Ala-pNA, tris-hydrochloric acid pH 8.0, 37° C. for 30 minutes, absorbance 405 nm. The procedure: The reaction mixture consisted of 1 mM Suc-Ala-Pro-Ala-pNA (dissolving in N-methylpyrrolidone to the concentration of 100 mM, and then adding 1/100 amount of the solution to the reaction mixture.), 0.1 M buffer solution of tris-hydrochloric acid (pH 8.0), 0.2 M sodium chloride aqueous solution, the sample solution of various concentrations and enzyme solution in a final volume of 1.0 ml was incubated at 37° C. for 30 minutes.
Inhibition percentage of the test compounds was calculated by the following equation: [formula]
`CSCCC(NC(=O)c1ccccc1NS(=O)(=O)c1ccc(OC(=O)C(C)(C)C)c(C)c1)C(=O)O` (racemic) [2(68), N-[o-(3-methyl-4-pivaloyloxybenzene)sulfonylaminobenzoyl]-dl-methionine] registered a 50% inhibitory concentration (IC50) of 200 nM.

For the compound `CC(C)(C)C(=O)Oc1ccc(S(N)(=O)=O)cc1` [1(2), p-sulfamoylphenyl ester of pivalic acid], the IC50 turned out to be 770 nM.

`CC(C)(C)C(=O)Oc1ccc(S(=O)(=O)NC2CCCCC2)cc1` [1(3), p-(N-cyclohexylsulfamoyl)phenyl ester of pivalic acid] returned a half-maximal inhibitory concentration (IC50) of 42 nM.

In the case of `CC(C)(C)C(=O)Oc1ccc(S(=O)(=O)Nc2ccc(Cl)cc2)cc1` [1(8), p-[N-(4-chlorophenyl)sulfamoyl] phenyl ester of pivalic acid], the IC50 worked out at 30 nM.

Compound `CC(C)(C)C(=O)Oc1ccc(S(=O)(=O)n2ccnc2)cc1` [1(12), p-[(1-imidazolyl)sulfonyl]phenyl ester of pivalic acid] showed an IC50 of 50 nM.

As to `CC(C)(C)C(=O)Oc1ccc(S(=O)(=O)Nc2ccccn2)cc1` [1(14), p-[N-(α-pyridyl)sulfamoyl]phen-yl ester of pivalic acid], 190 nM corresponded to half-maximal inhibition (IC50).

Consider `CC(=O)Oc1ccc(N(S(=O)(=O)c2ccc(OC(=O)C(C)(C)C)cc2)S(=O)(=O)c2ccc(OC(=O)C(C)(C)C)cc2)cc1` [1(15)], for which the concentration for half-maximal inhibition (IC50) stood at 48 nM.

`CC(C)(C)NS(=O)(=O)c1ccc(OC(=O)C(C)(C)C)cc1` [2(5), p-(N-tert-butylsulfamoyl)phenyl ester of pivalic acid]: half-maximal inhibition (IC50) required 53 nM.

With `CCN(CC)C(=O)COC(=O)c1ccccc1NS(=O)(=O)c1ccc(OC(=O)C(C)(C)C)c(C)c1` [2(38), 2-methyl-4-[N-(o-(N,N-diethyl-carbamoylmethoxycarbonyl)phehyl)sulfamoyl]phenyl ester of pivalic acid], half-maximal inhibition (IC50) required 72 nM.

`Cc1cc(S(=O)(=O)Nc2cccc3c2OC(C(=O)O)CO3)ccc1OC(=O)C(C)(C)C` (stereo not shown) [2(49), 2-methyl-4-[N-(1,4-dioxa-2-carboxy-8-yl-naphthalene)sulfamoyl]phenyl ester of pivalic] yielded an IC50 of 150 nM.

Regarding `Cc1cc(S(=O)(=O)Nc2ccccc2OCCCC(=O)O)ccc1OC(=O)C(C)(C)C` [2(51), 2-methyl-4-[N-(o-carboxypropoxy-phenyl)sulfamoyl]phenyl ester of pivalic acid], the IC50 was 640 nM.

The compound `Cc1cc(S(=O)(=O)Nc2ccccc2C(=O)N2CCC[C@H]2C(=O)O)ccc1OC(=O)C(C)(C)C` [2(62), 2-methyl-4-[N-(2-prolylcarbonylphenyl)sulfamoyl] phenyl ester of pivalic acid] gave an IC50 of 690 nM.

Compound `Cc1cc(S(=O)(=O)Nc2ccccc2C(=O)N[C@@H](Cc2ccccc2)C(=O)O)ccc1OC(=O)C(C)(C)C` [2(67), N-[o-(3-methyl-4-pivaloyloxybenzene)sulfonylaminobenzoyl]-L-phenylalanine] yielded a concentration for half-maximal inhibition (IC50) of 410 nM.

On to `Cc1cc(S(=O)(=O)Nc2ccccc2C(=O)N[C@@H](CCCCN)C(=O)O)ccc1OC(=O)C(C)(C)C` [2(69), N-[o-(3-methyl-4-pivaloyloxybenzene)sulfonylaminobenzoyl]-L-lysine. hydrochloride], for which the IC50 came to 520 nM.

`CSc1ccc(NS(=O)(=O)c2ccc(OC(=O)C(C)(C)C)cc2)c(C(=O)NCC(=O)O)c1` [2(80), N-[5-methylthio-2-(p-pivaloyoxy-benzene)sulfonylaminobenzoyl] glycine]: the half-inhibitory concentration (IC50) turned out to be 21 nM.

Compound `CCCSc1ccc(NS(=O)(=O)c2ccc(OC(=O)C(C)(C)C)cc2)c(C(=O)NCC(=O)O)c1` [2(87), N-[2-(p-pivaloyloxybenzene)sulfonylamino-5-propylthiobenzoyl] glycine] gave a half-inhibitory concentration (IC50) of 24 nM.

The compound `CC(C)(C)C(=O)Oc1ccc(S(=O)(=O)NCCc2ccccc2)cc1` [4(5), p-(N-phenethylsulfamoyl)phenyl ester of pivalic acid] came in with a half-inhibitory concentration (IC50) of 72 nM.

For the compound `CC(C)(C)C(=O)Oc1ccc(S(=O)(=O)Nc2ccccc2C(=O)O)cc1` [5(3), p-[N-(o-carboxyphenyl)sulfamoyl] phenyl ester of pivalic acid], the 50% inhibitory concentration (IC50) amounted to 23 nM.

Take `CN(c1ccc(Br)cc1)S(=O)(=O)c1ccc(OC(=O)C(C)(C)C)cc1` [Example 1, p-[N-(p-bromophenyl)-N-methylsulfamoyl] phenyl ester of pivalic]: the IC50 was determined as 31 nM.
